Assay [1] addresses recombinant human baculovirus-expressed AXL (Homo sapiens (Human), UniProt P30530). In words: AXL kinase assay (HTRF KinEASE). The format is biochemical. The conditions noted are these: average of two or more determinations.
The target of assay [2] is recombinant human baculovirus-expressed cMET (Homo sapiens (Human), UniProt P08581). As to the kind of experiment: c-MET kinase assay (HTRF KinEASE). The format is biochemical. Conditions: average of two or more determinations; read-out: c-MET IC50. On the technique in general: In TR-FRET formats the signal depends on donor and acceptor labels being close together.

This passage reports IC50 results from patent publication US9914731B2, “Pyrazolo[1,5-a]pyridine derivatives and methods of their use” (Ignyta, Inc., priority 2013, dated 2018).

What is called IC50 is the concentration that inhibits the measured activity by half.

For the compound `CC(C)n1cc(C(=O)Nc2ccc(Oc3cc(-c4cn(C)cn4)cn4nccc34)c(F)c2)c(=O)n(-c2ccc(F)cc2)c1=O` [Example 94, 3-(4-Fluoro-phenyl)-1-isopropyl-2,4-dioxo-1,2,3,4-tetrahydro-pyrimidine-5-carboxylic acid {3-fluoro-4-[6-(1-methyl-1H-imidazol-4-yl)-pyrazolo[1,5-a]pyridin-4-yloxy]-phenyl}-amide], the IC50 in assay [1] and in assay [2] was less than 0.01 µM each time.

On to `Cc1ccc(C(=O)Nc2ccc(Oc3cc(-c4cnn(C)c4)cn4nccc34)c(F)c2)c(=O)n1-c1ccc(F)cc1` [Example 34, 1-(4-Fluoro-phenyl)-6-methyl-2-oxo-1,2-dihydro-pyridine-3-carboxylic acid {3-fluoro-4-[6-(1-methyl-1H-pyrazol-4-yl)-pyrazolo[1,5-a]pyridin-4-yloxy]-phenyl}-amide], for which the IC50 in assay [1] and in assay [2] was less than 0.01 µM each time.

In the case of `O=C(Nc1ccc(Oc2cc(-c3ccncc3)cn3nccc23)c(F)c1)c1cccn(-c2ccc(F)cc2)c1=O` [Example 27, 1-(4-Fluoro-phenyl)-2-oxo-1,2-dihydro-pyridine-3-carboxylic acid [3-fluoro-4-(6-pyridin-4-yl-pyrazolo[1,5-a]pyridin-4-yloxy)-phenyl]-amide], the IC50 in assay [1] and in assay [2] was less than 0.01 µM each time.

Consider `CCn1nc(C(=O)Nc2ccc(Oc3cc(-c4cn(C)cn4)cn4nccc34)c(F)c2)c(=O)n(-c2ccc(F)cc2)c1=O` [Example 128, 2-Ethyl-4-(4-fluoro-phenyl)-3,5-dioxo-2,3,4,5-tetrahydro-1,2,4-triazine-6-carboxylic acid {3-fluoro-4-[6-(1-methyl-1H-imidazol-4-yl)-pyrazolo[1,5-a]pyridin-4-yloxy]-phenyl}-amide], for which the IC50 in assay [1] and in assay [2] was less than 0.01 µM in each case.

With `O=C(Nc1ccc(Oc2cc(N3CCOCC3)cn3nccc23)c(F)c1)c1cccn(-c2ccc(F)cc2)c1=O` [Example 56, 1-(4-Fluoro-phenyl)-2-oxo-1,2-dihydro-pyridine-3-carboxylic acid[3-fluoro-4-(6-morpholin-4-yl-pyrazolo[1,5-a]pyridin-4-yloxy)-phenyl]-amide], the IC50 in assay [1] and in assay [2] was less than 0.01 µM each time.

Take `Cc1ccc(C(=O)Nc2ccc(Oc3cc(N4CCC(=O)CC4)cn4nccc34)c(F)c2)c(=O)n1-c1ccc(F)cc1` [Example 59, 1-(4-Fluoro-phenyl)-6-methyl-2-oxo-1,2-dihydro-pyridine-3-carboxylic acid {3-fluoro-4-[6-(4-oxo-piperidin-1-yl)-pyrazolo[1,5-a]pyridin-4-yloxy]-phenyl}-amide]: the IC50 in assay [1] is less than 0.01 µM; in assay [2] it was 0.01 to 0.1 µM.

`CC(C)n1cc(C(=O)Nc2ccc(Oc3cc(-c4cnsc4)cn4nccc34)c(F)c2)c(=O)n(-c2ccc(F)cc2)c1=O` [Example 55, 3-(4-Fluoro-phenyl)-1-isopropyl-2,4-dioxo-1,2,3,4-tetrahydro-pyrimidine-5-carboxylic acid[3-fluoro-4-(6-isothiazol-4-yl-pyrazolo[1,5-a]pyridin-4-yloxy)-phenyl]-amide]: the IC50 in assay [1] and in assay [2] was less than 0.01 µM throughout.

With `CCn1cc(C(=O)Nc2ccc(Oc3cc(-c4cnsc4)cn4nccc34)c(F)c2)c(=O)n(-c2ccc(F)cc2)c1=O` [Example 54, 1-Ethyl-3-(4-fluoro-phenyl)-2,4-dioxo-1,2,3,4-tetrahydro-pyrimidine-5-carboxylic acid[3-fluoro-4-(6-isothiazol-4-yl-pyrazolo[1,5-a]pyridin-4-yloxy)-phenyl]-amide], the IC50 in assay [1] and in assay [2] was less than 0.01 µM throughout.

In the case of `CC(C)n1cc(C(=O)Nc2ccc(Oc3cc(-c4cn(C)cn4)cn4nccc34)cn2)c(=O)n(-c2ccc(F)cc2)c1=O` [Example 124, 3-(4-Fluoro-phenyl)-1-isopropyl-2,4-dioxo-1,2,3,4-tetrahydro-pyrimidine-5-carboxylic acid {5-[6-(1-methyl-1H-imidazol-4-yl)-pyrazolo[1,5-a]pyridin-4-yloxy]-pyridin-2-yl}-amide], the IC50 in assay [1] and in assay [2] was less than 0.01 µM throughout.

Take `Cn1cc(-c2cc(Oc3ccc(NC(=O)c4c[nH]c(=O)n(-c5ccc(F)cc5)c4=O)cc3F)c3ccnn3c2)cn1` [Example 30, 3-(4-Fluoro-phenyl)-2,4-dioxo-1,2,3,4-tetrahydro-pyrimidine-5-carboxylic acid {3-fluoro-4-[6-(1-methyl-1H-pyrazol-4-yl)-pyrazolo[1,5-a]pyridin-4-yloxy]-phenyl}-amide]: the IC50 in assay [1] and in assay [2] was less than 0.01 µM throughout.

As to `CCn1cc(C(=O)Nc2ccc(Oc3cc(NC(=O)OC)cn4nccc34)c(F)c2)c(=O)n(-c2ccc(F)cc2)c1=O` [Example 148, [4-(4-{[1-Ethyl-3-(4-fluoro-phenyl)-2,4-dioxo-1,2,3,4-tetrahydro-pyrimidine-5-carbonyl]-amino}-2-fluoro-phenoxy)-pyrazolo[1,5-a]pyridin-6-yl]-carbamic acid methyl ester], the values for the IC50 in assay [1] and in assay [2] were less than 0.01 µM and 0.01 to 0.1 µM, respectively.

For the compound `Cc1c(-c2cc(Oc3ccc(NC(=O)c4cccn(-c5ccc(F)cc5)c4=O)cc3F)c3ccnn3c2)cnn1C` [Example 39, 1-(4-Fluoro-phenyl)-2-oxo-1,2-dihydro-pyridine-3-carboxylic acid {4-[6-(1,5-dimethyl-1H-pyrazol-4-yl)-pyrazolo[1,5-a]pyridin-4-yloxy]-3-fluoro-phenyl}-amide], the IC50 in assay [1] and in assay [2] was less than 0.01 µM each time.

As for `CC(C)n1cc(C(=O)Nc2ccc(Oc3cc(N4CCOCC4)cn4nccc34)c(F)c2)c(=O)n(-c2ccc(F)cc2)c1=O` [Example 62, 3-(4-Fluoro-phenyl)-1-isopropyl-2,4-dioxo-1,2,3,4-tetrahydro-pyrimidine-5-carboxylic acid[3-fluoro-4-(6-morpholin-4-yl-pyrazolo[1,5-a]pyridin-4-yloxy)-phenyl]-amide], the IC50 in assay [1] and in assay [2] was less than 0.01 µM in each case.

As to `Cn1cc(-c2cc(Oc3ccc(NC(=O)c4cccn(-c5ccc(F)cc5)c4=O)cc3F)c3ccnn3c2)cn1` [Example 29, 1-(4-Fluoro-phenyl)-2-oxo-1,2-dihydro-pyridine-3-carboxylic acid {3-fluoro-4-[6-(1-methyl-1H-pyrazol-4-yl)-pyrazolo[1,5-a]pyridin-4-yloxy]-phenyl}-amide], the IC50 in assay [1] and in assay [2] was less than 0.01 µM throughout.

`CC(C)n1cc(C(=O)Nc2ccc(Oc3cc(NC(=O)N(C)C)cn4nccc34)c(F)c2)c(=O)n(-c2ccc(F)cc2)c1=O` [Example 147, 3-(4-Fluoro-phenyl)-1-isopropyl-2,4-dioxo-1,2,3,4-tetrahydro-pyrimidine-5-carboxylic acid{4-[6-(3,3-dimethyl-ureido)-pyrazolo[1,5-a]pyridin-4-yloxy]-3-fluoro-phenyl}-amide]: the IC50 in assay [1] and in assay [2] was less than 0.01 µM in each case.

Consider `CC(C)n1cc(C(=O)Nc2ccc(Oc3cc(-c4cn(C)cn4)cn4nccc34)cc2)c(=O)n(-c2ccc(F)cc2)c1=O` [Example 114, 3-(4-Fluoro-phenyl)-1-isopropyl-2,4-dioxo-1,2,3,4-tetrahydro-pyrimidine-5-carboxylic acid{4-[6-(1-methyl-1H-imidazol-4-yl)-pyrazolo[1,5-a]pyridin-4-yloxy]-phenyl}-amide], for which the IC50 in assay [1] and in assay [2] was less than 0.01 µM each time.

Regarding `Cc1cc(NC(=O)c2cn(C(C)C)c(=O)n(-c3ccc(F)cc3)c2=O)ccc1Oc1cc(-c2cn(C)cn2)cn2nccc12` [Example 110, 3-(4-Fluoro-phenyl)-1-isopropyl-2,4-dioxo-1,2,3,4-tetrahydro-pyrimidine-5-carboxylic acid{3-methyl-4-[6-(1-methyl-1H-imidazol-4-yl)-pyrazolo[1,5-a]pyridin-4-yloxy]-phenyl}-amide], the IC50 is less than 0.01 µM in assay [1] and 0.01 to 0.1 µM in assay [2].

Take `COC(=O)Nc1cc(Oc2ccc(NC(=O)c3cn(C(C)C)c(=O)n(-c4ccc(F)cc4)c3=O)cc2F)c2ccnn2c1` [Example 149, [4-(2-Fluoro-4-{[3-(4-fluoro-phenyl)-1-isopropyl-2,4-dioxo-1,2,3,4-tetrahydro-pyrimidine-5-carbonyl]-amino}-phenoxy)-pyrazolo[1,5-a]pyridin-6-yl]-carbamic acid methyl ester]: the IC50 in assay [1] is less than 0.01 µM; in assay [2], 0.01 to 0.1 µM.
